Measurements taken from patent publication US20240067631A1, “PYRAZOLE DERIVATIVES USEFUL AS NAMPT MODULATORS” (Cytokinetics, Inc., priority 2020, published 2024).
pEC50: −log10 of the molar value.

Target: human NAMPT (Homo sapiens (Human), UniProt P43490)
Test: Human recombinant enzyme assay (NMN fluorescence biochemical assay)
Details: 6 nM human NAMPT, 60 min; for AC1.4 Human: concentration of compound that generates 40% higher activity over basal; for pEC50: concentration that gives half-maximal activation
Procedure: Compounds described herein were assayed for their ability to stimulate the synthesis of nicotinamide mononucleotide (NMN) by the enzyme NAMPT. The human recombinant enzyme assay measures the activation of the enzyme activity by compounds using recombinant enzyme and substrates in a buffered cell-free system. The assay conditions closely mimic cellular environments. Dose responses were measured using an assay to detect the formation of nicotinamide mono-nucleotide. All experiments were performed in the 384-well format. Generally, 0.5 μL of DMSO containing varying concentrations of the test compound was mixed with 10 μL of the enzyme reagent solution. Enzyme reactions were initiated with the addition of 10 μL of a solution containing the substrates. The final assay conditions were as follows: 6 nM human NAMPT, 2.5 mM ATP, […] in 50 mM HEPES, pH 7.2, 1 mM DTT, 1 mM CHAPS 50 mM NaCl, 100 mM MgCl2. Following an incubation of 60 min at ambient temperature, 10 μL of 20% acetophenone in DMSO was added, followed by 10 μL of 2 M KOH and 40 μL of formic acid. The plates were read for fluorescence (Excitation/Emission=355 nm/460 nm) using an EnVision plate reader after 40 mins of incubation at ambient temperature. The potency measurements for compounds, are quantified and represented as AC1.4 (the concentration of compounds that generates 40% higher activity over basal) and EC50 (concentration of the compound that gives half-maximal activation).

Sequence of human NAMPT (P43490 whole entry): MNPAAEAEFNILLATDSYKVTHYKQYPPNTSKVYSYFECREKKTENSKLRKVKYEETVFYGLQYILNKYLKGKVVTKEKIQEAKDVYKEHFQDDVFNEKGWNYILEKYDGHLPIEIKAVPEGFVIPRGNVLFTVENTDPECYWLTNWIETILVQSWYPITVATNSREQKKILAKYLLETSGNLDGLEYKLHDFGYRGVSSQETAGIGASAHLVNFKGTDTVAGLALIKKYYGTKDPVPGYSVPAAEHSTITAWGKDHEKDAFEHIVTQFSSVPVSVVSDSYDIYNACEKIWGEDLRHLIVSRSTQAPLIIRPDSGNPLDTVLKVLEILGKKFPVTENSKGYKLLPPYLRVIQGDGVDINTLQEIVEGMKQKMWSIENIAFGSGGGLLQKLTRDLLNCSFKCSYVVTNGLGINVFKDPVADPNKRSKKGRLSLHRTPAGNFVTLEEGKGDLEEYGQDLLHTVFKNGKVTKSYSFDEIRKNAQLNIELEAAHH

SMILES	AC1.4 Human [µM]	pEC50
Cc1nc(C(=O)N2CC(C(F)(F)F)C2)nc(NCCc2cn[nH]c2)c1C [Compound 100, (4-((2-(1H-pyrazol-4-yl)ethyl)amino)-5,6-dimethylpyrimidin-2-yl)(3-(trifluoromethyl)azetidin-1-yl)methanone]	6.3085	4.40
CCCN(CCc1cn[nH]c1)c1nc(C(N)=O)nc(C)c1C [Compound 106, 4-((2-(1H-pyrazol-4-yl)ethyl)(propyl)amino)-5,6-dimethylpyrimidine-2-carboxamide]	1.7115	4.49
Cc1nc(C(=O)N2CCOCC2C(F)(F)F)nc(NCCc2cn[nH]c2)c1C (stereo not shown) [Compound 138, (4-((2-(1H-pyrazol-4-y)ethyl)amino)-5,6-dimethylpyrimidin-2-yl)(3-(trifluoromethyl)morpholino)methanone]	4.125	4.51
Cc1nc(C(=O)NC(c2ccccc2F)c2nccn2C)nc(NCCc2cn[nH]c2)c1C (stereo not shown) [Compound 98, 4-((2-(1H-pyrazol-4-yl)ethyl)amino)-N-((2-fluorophenyl)(1-methyl-1H-imidazol-2-yl)methyl)-5,6-dimethylpyrimidine-2-carboxamide]	1.3275	5.29
Cc1nc(C(=O)N2CC[C@@H](c3ccccc3)C2)nc(NCCc2cn[nH]c2)c1C [Compound 61, (S)-(4-((2-(1H-pyrazol-4-yl)ethyl)amino)-5,6-dimethylpyrimidin-2-yl)(3-phenylpyrrolidin-1-yl)methanone]	0.409	5.68
Cc1nc(C(=O)NCC2(c3cccc(F)c3)COC2)nc(NCCc2cn[nH]c2)c1C [Compound 74, 4-((2-(1H-pyrazol-4-yl)ethyl)amino)-N-((3-(3-fluorophenyl)oxetan-3-yl)methyl)-5,6-dimethylpyrimidine-2-carboxamide]	0.715	5.10
Cc1nc(C(=O)N2CC3(CCC3)C2)nc(NCCc2cn[nH]c2)c1C [Compound 123, (4-((2-(1H-pyrazol-4-yl)ethyl)amino)-5,6-dimethylpyrimidin-2-yl)(2-azaspiro[3.3]heptan-2-yl)methanone]	2.581	4.58
Cc1nc(C(=O)NCC2CN(C(=O)c3ccccc3)C2)nc(NCCc2cn[nH]c2)c1C [Compound 57, 4-((2-(1H-pyrazol-4-yl)ethyl)amino)-N-((1-benzoylazetidin-3-yl)methyl)-5,6-dimethylpyrimidine-2-carboxamide]	0.396	5.54
COCC(c1ccc(F)cc1)N(C)C(=O)c1nc(C)c(C)c(NCCc2cn[nH]c2)n1 (stereo not shown) [Compound 92, 4-((2-(1H-pyrazol-4-yl)ethyl)amino)-N-(1-(4-fluorophenyl)-2-methoxyethyl)-N,5,6-trimethylpyrimidine-2-carboxamide]	1.1995	5.25
Cc1nc(C(=O)NC2(c3ccccn3)CCC2)nc(NCCc2cn[nH]c2)c1C [Compound 145, 4-((2-(1H-pyrazol-4-yl)ethyl)amino)-5,6-dimethyl-N-(1-(pyridin-2-yl)cyclobutyl)pyrimidine-2-carboxamide]	4.9555	4.65
Cc1nc(C(=O)N2CCOCC2c2cccc(Cl)c2)nc(NCCc2cn[nH]c2)c1C (stereo not shown) [Compound 12, (4-((2-(1H-pyrazol-4-yl)ethyl)amino)-5,6-dimethylpyrimidin-2-yl)(3-(3-chlorophenyl)morpholino)methanone]	0.048	6.29
Cc1nc(C(=O)NC(C)(C)c2cccc(F)c2)nc(NCCc2cn[nH]c2)c1C [Compound 11, 4-((2-(1H-pyrazol-4-yl)ethyl)amino)-N-(2-(3-fluorophenyl)propan-2-yl)-5,6-dimethylpyrimidine-2-carboxamide]	0.0465	6.55
COc1cccc([C@@H](C)NC(=O)c2nc(C)c(C)c(NCCc3cn[nH]c3)n2)n1 [Compound 43, (R)-4-((2-(1H-pyrazol-4-yl)ethyl)amino)-N-(1-(6-methoxypyridin-2-yl)ethyl)-5,6-dimethylpyrimidine-2-carboxamide]	0.273	6.08
Cc1nc(C(=O)N[C@H](C)C2CCCCC2)nc(NCCc2cn[nH]c2)c1C [Compound 116, (R)-4-((2-(1H-pyrazol-4-yl)ethyl)amino)-N-(1-cyclohexylethyl)-5,6-dimethylpyrimidine-2-carboxamide]	2.9705	4.53
Cc1nc(C(=O)N2CCC(c3ccccc3F)C2)nc(NCCc2cn[nH]c2)c1C (stereo not shown) [Compound 66, (4-((2-(1H-pyrazol-4-yl)ethyl)amino)-5,6-dimethylpyrimidin-2-yl)(3-(2-fluorophenyl)pyrrolidin-1-yl)methanone]	4.5565	4.79
Cc1nc(C(=O)N2CCC[C@@H]2c2cccc(F)c2)nc(NCCc2cn[nH]c2)c1F [Compound 150, (R)-(4-((2-(1H-pyrazol-4-yl)ethyl)amino)-5-fluoro-6-methylpyrimidin-2-yl)(2-(3-fluorophenyl)pyrrolidin-1-yl)methanone]	0.12	–
Cc1nc(C(=O)Nc2cc(F)cc(F)c2)nc(NCCc2cn[nH]c2)c1C [Compound 117, 4-((2-(1H-pyrazol-4-yl)ethyl)amino)-N-(3,5-difluorophenyl)-5,6-dimethylpyrimidine-2-carboxamide]	2.2385	4.32
Cc1nc(C(=O)N2CC(c3cccc(F)c3)C2)nc(NCCc2cn[nH]c2)c1C [Compound 18, (4-((2-(1H-pyrazol-4-yl)ethyl)amino)-5,6-dimethylpyrimidin-2-yl)(3-(3-fluorophenyl)azetidin-1-yl)methanone]	0.0745	6.22
Cc1nc(C(=O)NC(C)c2ccc(Cl)s2)nc(NCCc2cn[nH]c2)c1C (stereo not shown) [Compound 70, 4-((2-(1H-pyrazol-4-yl)ethyl)amino)-N-(1-(5-chlorothiophen-2-yl)ethyl)-5,6-dimethylpyrimidine-2-carboxamide]	0.5795	5.51
Cc1nc(C(=O)Nc2ccncc2F)nc(NCCc2cn[nH]c2)c1C [Compound 144, 4-((2-(1H-pyrazol-4-yl)ethyl)amino)-N-(3-fluoropyridin-4-yl)-5,6-dimethylpyrimidine-2-carboxamide]	4.755	4.73
Cc1nc(C(=O)N2CC(O)(c3ccccc3)C2)nc(N2CC[C@@H](c3cn[nH]c3)C2)c1C (single isomer, unassigned) [Compound 9]	0.044	6.20
Cc1nc(C(=O)N2CC(OC(F)(F)F)C2)nc(NCCc2cn[nH]c2)c1C [Compound 81, (4-((2-(1H-pyrazol-4-yl)ethyl)amino)-5,6-dimethylpyrimidin-2-yl)(3-(trifluoromethoxy)azetidin-1-yl)methanone]	0.891	5.22
Cc1nc(C(=O)N2CC(c3ccccc3)C2)nc(NCCc2cn[nH]c2)c1C [Compound 76, (4-((2-(1H-pyrazol-4-yl)ethyl)amino)-5,6-dimethylpyrimidin-2-yl)(3-phenylazetidin-1-yl)methanone]	0.773	5.17
Cc1nc(C(=O)N2CC(CO)(c3ccccc3)C2)nc(NCCc2cn[nH]c2)c1C [Compound 84, (4-((2-(1H-pyrazol-4-yl)ethyl)amino)-5,6-dimethylpyrimidin-2-yl)(3-(hydroxymethyl)-3-phenylazetidin-1-yl)methanone]	31.857	4.40
Cc1cccc([C@@H](C)NC(=O)c2nc(C)c(C)c(NCCc3cn[nH]c3)n2)n1 [Compound 78, (R)-4-((2-(1H-pyrazol-4-yl)ethyl)amino)-5,6-dimethyl-N-(1-(6-methylpyridin-2-yl)ethyl)pyrimidine-2-carboxamide]	0.81	5.25
Cc1nc(C(=O)N2CCOCC2c2ccccc2Cl)nc(NCCc2cn[nH]c2)c1C (stereo not shown) [Compound 80, (4-((2-(1H-pyrazol-4-yl)ethyl)amino)-5,6-dimethylpyrimidin-2-yl)(3-(2-chlorophenyl)morpholino)methanone]	0.877	4.98
Cc1cc(NCCc2cn[nH]c2)nc(C(=O)N2CCC[C@@H]2c2cccc(F)c2)c1 [Compound 152]	12.6	–
Cc1nc(C(=O)N2CCOCC2(C)c2ccccc2)nc(NCCc2cn[nH]c2)c1C (stereo not shown) [Compound 25, (4-((2-(1H-pyrazol-4-yl)ethyl)amino)-5,6-dimethylpyrimidin-2-yl)(3-methyl-3-phenylmorpholino)methanone]	0.106	6.06
Cc1nc(C(=O)NC(c2cccc(F)c2)c2ccccn2)nc(NCCc2cn[nH]c2)c1C (stereo not shown) [Compound 46, 4-((2-(1H-pyrazol-4-yl)ethyl)amino)-N-((3-fluorophenyl)(pyridin-2-yl)methyl)-5,6-dimethylpyrimidine-2-carboxamide]	0.2845	5.63
Cc1nc(C(=O)NCc2cccs2)nc(NCCc2cn[nH]c2)c1C [Compound 19, 4-((2-(1H-pyrazol-4-yl)ethyl)amino)-5,6-dimethyl-N-(thiophen-2-ylmethyl)pyrimidine-2-carboxamide]	0.075	6.30
